According to patent US20180325106A1, “METHOD OF RETARDING AN ETHYLENE RESPONSE” (CURTIN UNIVERSITY OF TECHNOLOGY, priority 2015, published 2018):
Read-outs that look alike come from different tables or passages of the source. One block for each compound: values may come before it.

Key:
[1] = test system: 'Tegan Blue' Japanese plum fruit; experiment: Climacteric ethylene production in 'Tegan Blue' plum fruit after fumigation; format: in vivo; settings: for level of climacteric ethylene, suppressed, fold in comparison to the solely ethylene treated fruit: then ethylene 10 μL L^-1 24 hr, 'Tegan Blue' plum, P≤0.05
Description: Mature ‘Tegan Blue’ and ‘Fortune’ Japanese plum and ‘Arctic Pride’ nectarine fruits of uniform size and maturity, free from visual blemishes and diseases were harvested in early morning from a commercial orchard in Western Australia. Following the harvest, the fruit were brought to the Horticulture Research Laboratory, Curtin University, using a temperature controlled vehicle at 20-25° C. The fruit were treated by fumigation with 0 to 100 nLL^−1 of BC and 1000 nLL^−1 of 1-MCP (Tegan Blue plum) for 18 hr at ambient conditions (20±1° C. and 65±5% RH) by using hermetically sealed plastic containers of 60 L volume. Whatman filter paper (number 2) soaked with specific concentrations of BC and 1-MCP were kept along with the fruit and 30 g of soda lime inside each container. A small battery operated fan was used to ensure equal distribution of the vapours from the chemicals. Half of the treated fruit was exposed to ethylene (10 μL L^−1) for 24 hr following BC and 1-MCP treatment.
The endogenous level of ethylene was determined by using the Sensor Sense (Sensor sense B. V, Nijmegen, The Netherlands). The Sensor Sense includes an ETD 300 ethylene detector, a set of valve controllers with an option of six valves connected to six separate cuvettes [1.0 L air-tight jar, fitted with a rubber septum (SubaSeal®, Sigma-Aldrich Co., St. Louis, USA)]. The continuous flow method was used with coarse mode (conversion factor 99818, capacity to measure ethylene concentration at 0-500 ppm, sensitivity at <1%) of analysis. Each sample was run for 20 minutes with a flow rate of 4.0 L hour^−1 and the average reading of last 15 minutes was considered to calculate the concentration of ethylene and expressed as μmol […] h^−1.
(§1) The experimental data were analysed following one-way analysis of variance (ANOVA) by using Genstat 13 (release 13.1; Lawes Agricultural Trust, Rothamsted Experimental Station, Harpenden, UK). The effects of various treatments and their interactions were assessed and least significant differences (Fisher's LSD) were calculated by F test at 5% level of significance.

[2] = test system: 'Arctic Pride' nectarine fruit; experiment: Climacteric ethylene production in 'Arctic Pride' nectarine fruit after fumigation; format: in vivo; settings: 50 nLL^-1 fumigation, then ethylene 10 μL L^-1
Description: (§2) Mature ‘Tegan Blue’ and ‘Fortune’ Japanese plum and ‘Arctic Pride’ nectarine fruits of uniform size and maturity, free from visual blemishes and diseases were harvested in early morning from a commercial orchard in Western Australia. Following the harvest, the fruit were brought to the Horticulture Research Laboratory, Curtin University, using a temperature controlled vehicle at 20-25° C. The fruit were treated by fumigation with 0 to 100 nLL^−1 of BC and 1000 nLL^−1 of 1-MCP (Tegan Blue plum) for 18 hr at ambient conditions (20±1° C. and 65±5% RH) by using hermetically sealed plastic containers of 60 L volume. […]
The endogenous level of ethylene was determined by using the Sensor Sense (Sensor sense B. V, Nijmegen, The Netherlands). […] Each sample was run for 20 minutes with a flow rate of 4.0 L hour^−1 and the average reading of last 15 minutes was considered to calculate the concentration of ethylene and expressed as μmol […] h^−1.
as §1

[3] = test system: 'Tegan Blue' Japanese plum fruit; experiment: Climacteric respiration (CO2 production) in 'Tegan Blue' plum fruit; format: in vivo
Description: as §2
(§3) Respiration rate was determined as carbon dioxide (CO2) production from the fruit during ripening period a using CO2 analyser. […] The respiration rate was calculated on the basis of the peak areas of 2.0 mL gas sample and CO2 standard (8.52±0.17%) and expressed as mmoL CO2 […] h^−1.
as §1

[4] = test system: 'Arctic Pride' nectarine fruit; experiment: Climacteric respiration (CO2 production) in 'Arctic Pride' nectarine fruit; format: in vivo
Description: as §2, §3, §1

WX17 wax flower = experiment: Flower/bud abscission in WX17 wax flower; format: in vivo, Chamelaucium Desf.; settings: 100 nLL^-1 fumigation followed by ethylene 10 μLL^-1
Description: (§4) To evaluate the effects of BC and NC on flower abscission, flowering stems of Wax flower (Chamelaucium Desf.) (WX17, WX73 and WX107) were collected from mature bushes grown at Department of Agriculture and Food Western Australia (DAFWA), Perth (31° 58′ 55″ S/115° 51′ 47″ E). Collected stems were immediately placed upright in buckets with water and recut at 20-25 cm in length (from the cut end to the most extreme opened-flowers). The flower stalks were treated similarly as the fruits with BC (0-100 nLL^−1) or NC (0-100 nLL^−1) and ethylene. The experiments were laid out by following CRD design, having five replications for each treatment and five stalks in each replication. During the treatment period, the flower stalks were placed in small plastic bottles with distilled water. A cone made of nylon mesh was placed at the base of the stalks to check the number of abscised flowers. […]
as §1

WX73 wax flower = experiment: Flower/bud abscission in WX73 wax flower; format: in vivo, Chamelaucium Desf.
Description: as §4, §1

[5] = Stability at room temperature; format: physicochemical
Solubility in water = format: physicochemical
[6] = gas at room temperature; background statement; cited from earlier work

solubility in water (Solubility in water): only partially soluble in water
SMILES: c1ccc2c(c1)C2 [BC, benzocyclopropene]
level of climacteric ethylene, suppressed, fold in comparison to the solely ethylene treated fruit ([1]; 100 nLL^-1 fumigation 18 hr): 0.80 fold
difference between effects of BC (100 nL L^-1) and 1-MCP (1000 nL L^-1) on climacteric ethylene and respiration ([1]; 'Tegan Blue' and 'Fortune' plum, 'Arctic Pride' nectarine, ethylene and respiration): non-significant differences
level of ethylene, suppressed, fold versus the solely ethylene treated fruit [2]: 0.63 fold
climacteric respiration, suppressed, fold versus the solely ethylene treated fruit ([3]; 100 nLL^-1 fumigation + ethylene): 0.83 fold
respiration climacteric, suppression, fold in comparison to the solely ethylene treated fruit ([4]; 50 nLL^-1 fumigation + ethylene): 0.77 fold
respiration climacteric, suppression, fold in comparison to the solely ethylene treated fruit ([4]; 50 nLL^-1 fumigation, no ethylene exposure): 0.71 fold
rate of flower/bud abscission (WX17 wax flower): 6.05%
rate of flower/bud abscission (WX73 wax flower; 50 nL L^-1 fumigation followed by ethylene): 22.43%
rate of flower/bud abscission (WX73 wax flower; 100 nL L^-1 fumigation followed by ethylene): 28.40%
stability [5]: stable at room temperature for several months

SMILES: CC1=CC1 [1-MCP, 1-Methylcyclopropene, reference compound]
level of climacteric ethylene, suppressed, fold in comparison to the solely ethylene treated fruit ([1]; 1000 nLL^-1 fumigation 18 hr): 0.70 fold
climacteric respiration, suppressed, fold versus the solely ethylene treated fruit ([3]; 1000 μLL^-1 (so in the source) fumigation + ethylene): 0.77 fold
stability [6]: highly unstable
